From patent publication US20260125374A1, “PI3K-ALPHA INHIBITORS AND METHODS OF MAKING AND USING THE SAME” (Relay Therapeutics, Inc., priority 2021, published 2026)
≈ marks a conversion by molar mass, not a printed value.

Experiments:
Assay type in all cases: physicochemical
[1] = Salt screening (XRPD, chiral purity of hits)
Procedure, shortened: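 About 50 mg of I-1 Form A is stirred with 1.0 equivalent of counter ion in MeOH, acetone or IPAc at 50 °C for 2 h, then at 25 °C for at least 12 h. The screen covers 23 counter ions/coformers in about 70 experiments, using slurry, slow evaporation or anti-solvent addition. Solids are centrifuged off and analysed by XRPD.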

[2] = Suspension stability at 25° C.; conditions: for Purity / Solubility / pH / Chiral purity (solids) / Solubility (μg/mL) / Chiral purity, liquid / Chiral purity, solid: 25° C.; for Solubility (μg/mL): LOQ: 0.25 μg/mL
Method: Suspension stability: Suspension stability of I-1 Form A and the 2 salt candidates was investigated in pure water, 0.5% (w/w) Tween 80 aqueous solution and 0.5% (w/w) MC (400 cP)+2% (w/w) Vitamin E TPGS aqueous solution at 25° C. for 2 h and 24 h. Target concentration was 2 mg/mL.
To confirm whether racemization occurs for the 2 salts in 0.5% (w/w) MC (400 cP)+2% (w/w) Vitamin E TPGS aqueous solution, the suspension stability in this vehicle was repeated at target concentration of 10 mg/mL. […] The hygroscopicity of these salts were further investigated.
Accurate 10 mg of I-1 Form A, 12.83 mg of I-3 Form A, 11.58 mg of I-4 Form A was weighed into a 8 mL glass vial, respectively. 5 mL of suspension vehicle was added, respectively. The salt amount used is equivalent to 10 mg anhydrous free form. These suspensions were stirred at 25° C. with 400 rpm. These suspensions were taken out at 2 hours and 24 hours, then centrifuged at 14,000 rpm for 5 min. The supernatants were analyzed by HPLC and pH meter. Solids obtained (wet cakes) were characterized by XRPD and HPLC to determine the chiral purity.
Accurate […] of I-3 Form A, 46.3 mg of I-4 Form A was weighed into a 8 mL glass vial, respectively. 4 mL of solubility medium was added, respectively. The salt amount used is equivalent to 40 mg anhydrous free form. 4 mL of the aqueous vehicle (0.5% (w/w) MC (400 cP) and 2% (w/w) Vitamin E TPGS in water) was added, respectively. These suspensions were stirred at 25° C. with 400 rpm. These suspensions were taken out at 2 hours and 24 hours, then centrifuged at 14,000 rpm for 5 min. The supernatants were analyzed by HPLC for the solubility and chiral purity and analyzed by pH meter. Solids obtained (wet cakes) were characterized by XRPD and HPLC for chiral purity.

Bulk stability (1 week) = conditions: listed as I-4 Form A; for Bulk (HPLC) chiral purity / Bulk (HPLC) purity / Bulk (XRPD): Solid state
Method: Bulk stability of I-1 Form A and the 2 salt candidates was investigated at 25° C./92% RH in an open container, at 40° C./75% RH in an open container and at 60° C. in a tight container over 1 week. […] All the 3 salts show no obvious racemization based on chiral purity results.
I-1 Form A and the 2 salts were placed at 25° C./92% RH in an open container, at 40° C./75% RH in an open container and at 60° C. in a closed container for I week. Samples after I week were characterized by XRPD and HPLC and inspected for color change.

[3] = crystalline hits of salt screening, listed as I-4 Form A
[4] = 2 mg/mL, 0.5%(w/w) MC(400 cP) and 2%(w/w) Vitamin E TPGS in water, 2 h, listed as I-4 Form A
[5] = 2 mg/mL, 0.5%(w/w) MC(400 cP) and 2%(w/w) Vitamin E TPGS in water, 24 h, listed as I-4 Form A
[6] = 2 mg/mL, 0.5%(w/w) Tween 80 in water, 2 h, listed as I-4 Form A
[7] = 2 mg/mL, 0.5%(w/w) Tween 80 in water, 24 h, listed as I-4 Form A
[8] = 2 mg/mL, Pure water, 2 h, listed as I-4 Form A
[9] = 2 mg/mL, Pure water, 24 h, listed as I-4 Form A
[10] = 10 mg/mL, 0.5(w/w) MC(400 cP) and 2%(w/w) Vitamin E TPGS in water, 2 h, listed as I-4 Form A
[11] = 10 mg/mL, 0.5(w/w) MC(400 cP) and 2%(w/w) Vitamin E TPGS in water, 24 h, listed as I-4 Form A
[12] = 25° C./92% RH, open container, 1 week
[13] = 40° C./75% RH, open container, 1 week
[14] = 60° C., tight container, 1 week

**Q.** Which “Salt screening result (anti-solvent)” value ([1]; 1.0 equiv. methanesulfonic acid, Acetone/MTBE) does the source give for `N#Cc1c(-c2cc(NC(=O)c3cc(F)cc(C(F)(F)F)c3)c3c(c2)C(=O)N[C@H]3c2cc(F)ccc2Cl)ccc2ncnn12` [Compound I-4] here?
**A.** The value was “+ (I-4 Form A) (Salt hits)”.

**Q.** And the “Chiral purity of salt screening solid” value ([1]; anti-solvent, 1.0 equiv. methanesulfonic acid, Acetone/MTBE)?
**A.** Its value is “Chiral purity: 98.3%”.

**Q.** What about the “Chiral purity (by HPLC)” value [1, 3] of the same molecule?
**A.** Its value is 98.3%.

**Q.** And the “Crystallinity (By XRPD)” value [1, 3]?
**A.** The value was “Low”.

**Q.** What about the “physical form of residual solids after the test (XRPD)” value ([2]; 0.5% MC (400 cP)+2% Vitamin E TPGS, target 10 mg/mL) of the same molecule?
**A.** Its value is “converted to amorphous form”.

**Q.** What about the Purity [2, 4] of the same molecule?
**A.** Its Purity is 99.2%.

**Q.** What about the “Solubility” value [2, 4] of the same molecule?
**A.** Its value is 1210.7 µg/mL (≈ 1.99 mM).

**Q.** What about the pH [2, 4] of the same molecule?
**A.** The pH was 2.72.

**Q.** What about the Purity [2, 5] of the same molecule?
**A.** Its Purity is 99.6%.

**Q.** What about the “Solubility” value [2, 5] of the same molecule?
**A.** The value was 2018.8 µg/mL (≈ 3.32 mM).

**Q.** And the pH [2, 5]?
**A.** Its pH is 2.61.

**Q.** What about the “Chiral purity (solids)” value [2, 6] of the same molecule?
**A.** Its value is 99.7%.

**Q.** What about the Purity [2, 6] of the same molecule?
**A.** Its Purity is 99.5%.

**Q.** What about the “Solubility” value [2, 6] of the same molecule?
**A.** The value was 342.6 µg/mL (≈ 0.563 mM).

**Q.** And the pH [2, 6]?
**A.** Its pH is 2.78.

**Q.** And the “Chiral purity (solids)” value [2, 7]?
**A.** Its value is 95.8%.

**Q.** And the Purity [2, 7]?
**A.** Its Purity is 99.6%.

**Q.** And the pH [2, 7]?
**A.** The pH was 2.63.

**Q.** What about the “Solubility (μg/mL)” value ([2]; 2 mg/mL, Pure water, 2 h) of the same molecule?
**A.** The value was “<LOQ”.

**Q.** What about the “Chiral purity (solids)” value [2, 8] of the same molecule?
**A.** The value was 99.7%.

**Q.** And the Purity [2, 8]?
**A.** The Purity was 99.5%.

**Q.** And the pH [2, 8]?
**A.** Its pH is 2.81.

**Q.** And the “Solubility (μg/mL)” value ([2]; 2 mg/mL, Pure water, 24 h)?
**A.** Its value is “<LOQ”.

**Q.** What about the “Chiral purity (solids)” value [2, 9] of the same molecule?
**A.** The value was 99.7%.

**Q.** What about the Purity [2, 9] of the same molecule?
**A.** Its Purity is 99.4%.

**Q.** And the pH [2, 9]?
**A.** Its pH is 2.61.

**Q.** And the Purity ([2]; 10 mg/mL, 0.5(w/w) MC(400 cP) and 2%(w/w) Vitamin E TPGS in water, 2 h)?
**A.** The Purity was 99.7%.

**Q.** And the “Chiral purity, liquid” value [2, 10]?
**A.** The value was 100%;.

**Q.** What about the “Chiral purity, solid” value [2, 10] of the same molecule?
**A.** Its value is 99.8%.

**Q.** What about the pH [2, 10] of the same molecule?
**A.** Its pH is 1.89.

**Q.** What about the “Chiral purity, liquid” value [2, 11] of the same molecule?
**A.** The value was 99.8%;.

**Q.** What about the “Chiral purity, solid” value [2, 11] of the same molecule?
**A.** Its value is 99.7%.

**Q.** And the Purity [2, 11]?
**A.** Its Purity is 99.6%.

**Q.** And the pH [2, 11]?
**A.** Its pH is 1.86.

**Q.** What about the solubility at 2 h ([2]; 25 °C, aqueous with cosolvent or surfactant or cyclodextrin, thermodynamic from solid, 10 mg/mL, 0.5(w/w) MC(400 cP) and 2%(w/w) Vitamin E TPGS in water, 2 h) of the same molecule?
**A.** Its solubility at 2 h is 3950 µg/mL (≈ 6.48 mM).

**Q.** What about the solubility at 24 h ([2]; 25 °C, aqueous with cosolvent or surfactant or cyclodextrin, thermodynamic from solid, 10 mg/mL, 0.5(w/w) MC(400 cP) and 2%(w/w) Vitamin E TPGS in water, 24 h) of the same molecule?
**A.** The solubility at 24 h was 3810 µg/mL (≈ 6.26 mM).

**Q.** What about the Initial chiral purity ([2]; before suspension, listed as I-4 Form A) of the same molecule?
**A.** Its Initial chiral purity is “Initial chiral purity: 99.5%”.

**Q.** And the solubility at 24 h ([2]; suspension in 0.5% (w/w) Tween 80 in water, 25 °C, aqueous with cosolvent or surfactant or cyclodextrin, thermodynamic from solid, 2 mg/mL, 0.5%(w/w) Tween 80 in water, 24 h)?
**A.** The solubility at 24 h was 16.3 µg/mL (≈ 0.0268 mM).

**Q.** And the “bulk stability (chemical and physical)” value (Bulk stability (1 week); 25° C./92% RH open, 40° C./75% RH open, 60° C. tight container, 1 week)?
**A.** Its value is “chemically stable but physically unstable at 25° C./92% RH and 40° C./75% RH”.

**Q.** What about the “Bulk (HPLC) chiral purity” value (Bulk stability (1 week); [12]) of the same molecule?
**A.** The value was 98.3%.

**Q.** What about the “Bulk (HPLC) purity” value (Bulk stability (1 week); [12]) of the same molecule?
**A.** Its value is 99.4%/.

**Q.** And the “Bulk (XRPD)” value (Bulk stability (1 week); [12])?
**A.** The value was “Form changed”.

**Q.** And the “Bulk (HPLC) chiral purity” value (Bulk stability (1 week); [13])?
**A.** The value was 99.1%.

**Q.** And the “Bulk (HPLC) purity” value (Bulk stability (1 week); [13])?
**A.** The value was 99.0%/.

**Q.** What about the “Bulk (XRPD)” value (Bulk stability (1 week); [13]) of the same molecule?
**A.** Its value is “Form changed”.

**Q.** And the “Bulk (HPLC) chiral purity” value (Bulk stability (1 week); [14])?
**A.** The value was 99.2%.

**Q.** What about the “Bulk (HPLC) purity” value (Bulk stability (1 week); [14]) of the same molecule?
**A.** The value was 99.5%/.

**Q.** What about the “Chiral purity (initial)” value (Bulk stability (1 week); before storage) of the same molecule?
**A.** Its value is 99.5%.

**Q.** And the “Initial purity by HPLC” value (Bulk stability (1 week); before storage)?
**A.** Its value is 99.6%.
